What was measured:
[1] = biological target: T1, COX-1 (Ovis aries, UniProt P05979); assay: In vitro COX enzyme assay (COX Inhibitor Screening Kit, Cayman); assay type: biochemical; conditions: means ± S.E.M. of 3 independent experiments
T1 construct: purchased Cayman Chemical Company (Ann Arbor, MI)
T1 sequence (P05979 25-600): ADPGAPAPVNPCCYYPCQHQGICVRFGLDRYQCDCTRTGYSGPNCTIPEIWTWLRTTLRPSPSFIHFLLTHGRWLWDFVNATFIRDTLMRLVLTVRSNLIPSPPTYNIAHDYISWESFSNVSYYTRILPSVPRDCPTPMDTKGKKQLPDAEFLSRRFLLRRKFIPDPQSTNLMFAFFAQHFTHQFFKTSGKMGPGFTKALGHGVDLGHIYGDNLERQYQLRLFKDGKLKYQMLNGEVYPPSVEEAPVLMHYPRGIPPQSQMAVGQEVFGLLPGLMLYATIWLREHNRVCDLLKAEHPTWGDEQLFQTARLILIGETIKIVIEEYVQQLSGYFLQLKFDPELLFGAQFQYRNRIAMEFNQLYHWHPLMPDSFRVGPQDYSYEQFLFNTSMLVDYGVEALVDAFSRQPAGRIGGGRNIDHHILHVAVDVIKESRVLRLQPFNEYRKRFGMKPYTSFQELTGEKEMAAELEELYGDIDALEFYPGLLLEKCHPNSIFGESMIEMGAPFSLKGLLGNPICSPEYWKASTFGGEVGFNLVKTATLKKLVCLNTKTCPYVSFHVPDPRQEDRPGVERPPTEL
Description: (§1) COX activity was evaluated using a COX Inhibitor Screening Kit from Cayman Chemical Company (Ann Arbor, MI) according to the manufacturer’s instructions.

[2] = biological target: T2, COX-2 (Homo sapiens, UniProt P35354); assay: as above; assay type: biochemical; conditions: means ± S.E.M. of 3 independent experiments
T2 construct: purchased Cayman Chemical Company (Ann Arbor, MI)
T2 sequence (P35354 18-604): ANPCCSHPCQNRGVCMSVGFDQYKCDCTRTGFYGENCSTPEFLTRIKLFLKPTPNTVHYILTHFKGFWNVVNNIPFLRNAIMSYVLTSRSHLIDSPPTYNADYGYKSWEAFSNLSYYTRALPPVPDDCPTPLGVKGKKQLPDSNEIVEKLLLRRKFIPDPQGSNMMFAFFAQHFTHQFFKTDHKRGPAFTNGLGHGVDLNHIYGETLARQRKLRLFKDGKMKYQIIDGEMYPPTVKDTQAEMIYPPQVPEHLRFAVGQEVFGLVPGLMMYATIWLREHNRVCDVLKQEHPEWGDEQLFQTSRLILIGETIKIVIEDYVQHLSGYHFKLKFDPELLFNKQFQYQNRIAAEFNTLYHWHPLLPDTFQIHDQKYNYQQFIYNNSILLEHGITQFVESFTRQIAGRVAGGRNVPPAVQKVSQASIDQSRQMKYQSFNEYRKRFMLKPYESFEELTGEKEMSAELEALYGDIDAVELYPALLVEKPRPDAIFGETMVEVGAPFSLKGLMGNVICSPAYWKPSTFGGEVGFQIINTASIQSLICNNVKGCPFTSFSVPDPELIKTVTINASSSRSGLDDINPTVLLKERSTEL
Description: as §1

[3] = tested on: human umbilical vein endothelial cells (HUVECs); assay: TXB2 and 6-keto PGF1α assay in HUVECs (ratio as cardiovascular toxicity biomarker); assay type: cell-based; conditions: 3 µM
Description: Cells (6×10^5) were seeded in a six-well plate in the presence of 10% FBS. At 70-80% confluence, cells were pretreated with vehicle or individual compounds in 1 mL fresh medium for 2 h. […] Supernatant fractions were collected for prostaglandin measurement using enzyme immunoassay kits (Cayman Chemical Company).
Figure 2 Effects of dietary phytochemicals on (A) TXB2 and (B) 6-keto-PGF1α under physiological conditions. HUVECs were seeded in a six-well-plate (6×10^5 cells per well). At 70-80% confluence, 1 mL fresh medium containing DMSO or 3 µM of each individual compound was added and cells were further incubated for 8 h. Supernatant fractions were collected for prostaglandin measurement. (C) The ratio of TXB2/6-keto-PGF1α. Data are presented as means ± S.E.M (n = 4) and the asterisk(s) indicate a significant (*, p < 0.05; ***, p < 0.001) difference versus the vehicle control group.

IC50 [1] | IC50 [2] | Structure (SMILES) | ratio of TXB2/6-keto-PGF1α ([3]; physiological conditions, 8 h (Figure 2)) | ratio of TXB2/6-keto-PGF1α ([3]; pro-inflammatory conditions, 2 h pretreatment then IL-1β 17.5 ng/mL for 8 h (Figure 3))
111 ± 7.5 µM | 236 ± 19.7 µM | O=c1c(O)c(-c2ccc(O)cc2)oc2cc(O)cc(O)c12 [Kaempferol] | – | –
> 400 µM | > 400 µM | O=C1C[C@@H](c2ccc(O)cc2)Oc2cc(O)cc(O)c21 [Naringenin] | – | –
> 400 µM | > 400 µM | O=c1c(O)c(-c2ccc(O)c(O)c2)oc2cc(O)cc(O)c12 [Quercetin] | – | –

Second part, the compound before the results:

Structure (SMILES) | IC50 [1] | IC50 [2] | ratio of TXB2/6-keto-PGF1α ([3]; physiological conditions, 8 h (Figure 2)) | ratio of TXB2/6-keto-PGF1α ([3]; pro-inflammatory conditions, 2 h pretreatment then IL-1β 17.5 ng/mL for 8 h (Figure 3))
O=c1cc(-c2ccc(O)cc2)oc2cc(O)cc(O)c12 [Apigenin] | 94.1 ± 12.3 µM | – | – | –
COc1cc(/C=C/C(=O)CC(=O)/C=C/c2ccc(O)c(OC)c2)ccc1O [Curcumin] | 330 ± 34.3 µM | – | – | –
O=C(O[C@@H]1Cc2c(O)cc(O)cc2O[C@@H]1c1cc(O)c(O)c(O)c1)c1cc(O)c(O)c(O)c1 [EGCG] | 17.9 ± 4.2 µM | 28.6 ± 3.8 µM | most potent inhibitory effect | most potent inhibitory effect
O=c1c(-c2ccc(O)cc2)coc2cc(O)cc(O)c12 [Genistein] | 9.9 ± 2.3 µM | 256 ± 35.7 µM | – | –
Oc1ccc(/C=C/c2cc(O)cc(O)c2)cc1 [Resveratrol] | 3.4 ± 1.1 µM | – | – | –

Source: paper PMC3789677, “Select Dietary Phytochemicals Function as Inhibitors of COX-1 but Not COX-2” (PLoS ONE, 2013)
